# In US20230365554A1, “SUBSTITUTED PYRROLO-PYRIDINONE DERIVATIVES AND THERAPEUTIC USES THEREOF” (The Broad Institute, Inc., priority 2020, published 2023):
# Assays:
# [1] = molecular target: human CSNK1A1 (Homo sapiens (Human), UniProt P48729); assay: CSNK1A1 Assay 2 (ADP-Glo, 1 μM ATP); format: biochemical; settings: median, Table 2, read-out: CSNK1A1 Assay 2 IC50 [mol/l] (median)
# Procedure: CSNK1A1-inhibitory activity of compounds of the present invention in presence of 1 μM adenosine-tri-phosphate (ATP) was quantified employing the CSNK1A1 assay as described in the following paragraphs. In essence, the enzyme activity is measured by quantification of the adenosine-di-phosphate (ADP), which is generated as a co-product of the enzyme reaction, via the “ADP-Glo™ Kinase Assay” kit from the company Promega. This detection system works as follows: In a first step the ATP not consumed in the kinase reaction is quantitatively converted to cAMP employing an adenylate cyclase (“ADP-Glo-reagent”), then the adenylate cyclase is stopped and the ADP generated in the kinase reaction converted to ATP which generates in a luciferase-based reaction a glow-luminescence signal (“Kinase Detection Reagent”).
# (§1) Recombinant fusion protein of N-terminal Glutathion-S-Transferase (GST) and full-length human CSNK1A1, expressed by baculovirus infected insect cells and purified via Glutathion affinity chromatography, was purchased from Life Technologies (product no. PV4174) and used as enzyme. As substrate for the kinase reaction the biotinylated peptide biotin-Ahx-KRRRAL-pS-VASLPGL (C-terminus in amide form) was used which can be purchased e.g. from the company Biosyntan (Berlin-Buch, Germany).
# For the assay 50 nl of a 100 fold concentrated solution of the test compound in DMSO was pipetted into a white 1536-well microtiter plate (Greiner Bio-One, Frickenhausen, Germany), 2 μL of a solution of CSNK1A1 in aqueous assay buffer [50 mM HEPES pH 7.5, 10% (v/v) glycerol, 10 mM MgCl2, 50 mM NaCl, 1 mM dithiothreitol, 0.01% (w/v) bovine serum albumin, 0.01% (v/v) Triton X-100] were added and the mixture was incubated for 15 min at 22° C. to allow pre-binding of the test compounds to the enzyme before the start of the kinase reaction. Then the kinase reaction was started by the addition of 3 μL of a solution of ATP (1.67 μM=>final conc. in the 5 μL assay volume is 1 μM) and peptide substrate (50 μM=>final conc. in the 5 μL assay volume is 30 μM) in assay buffer and the resulting mixture was incubated for a reaction time of 30 min at 22° C. The concentration of CSNK1A1 was adjusted depending of the activity of the enzyme lot and was chosen appropriate to have the assay in the linear range, a typical concentrations are about 0.0375 ng/μL. The reaction was stopped by the addition of 2.5 μL of “ADP-Glo-reagent” (1:1.5 fold diluted with water) and the resulting mixture was incubated at 22° C. for 1 h to convert the ATP not consumed in the kinase reaction completely […]. Subsequently 2.5 μL of the “kinase detection reagent” (1.2 fold more concentrated than recommended by the producer) were added, the resulting mixture was incubated at 22° C. for 1 h and then the luminescence measured with a suitable measurement instrument (e.g. Viewlux™ from Perkin-Elmer). The amount of emitted light was taken as a measure for the amount of ADP generated and thereby for the activity of the CSNK1A1.
# (§2) The data were normalised (enzyme reaction without inhibitor=0% inhibition, all other assay components but no enzyme=100% inhibition).
# [2] = molecular target: human CSNK1D (Homo sapiens (Human), UniProt P48730); assay: CSNK1D assay (ADP-Glo, 1 μM ATP); format: biochemical; settings: median, Table 2, read-out: CSNK1D IC50 [mol/l] (median)
# human CSNK1D, sequence (P48730 whole entry): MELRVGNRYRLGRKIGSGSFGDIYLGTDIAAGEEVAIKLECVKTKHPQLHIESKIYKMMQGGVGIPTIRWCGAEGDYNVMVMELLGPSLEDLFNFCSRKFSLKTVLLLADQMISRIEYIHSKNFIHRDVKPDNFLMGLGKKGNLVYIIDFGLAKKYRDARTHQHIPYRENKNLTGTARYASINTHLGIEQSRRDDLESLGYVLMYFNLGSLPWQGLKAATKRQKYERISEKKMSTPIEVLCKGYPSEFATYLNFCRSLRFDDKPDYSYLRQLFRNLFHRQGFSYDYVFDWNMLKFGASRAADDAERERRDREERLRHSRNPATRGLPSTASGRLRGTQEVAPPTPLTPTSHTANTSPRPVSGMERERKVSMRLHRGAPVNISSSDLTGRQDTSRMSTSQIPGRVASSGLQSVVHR
# Procedure: CSNK1D-inhibitory activity of compounds of the present invention in presence of 1 μM adenosine-tri-phosphate (ATP) was quantified employing the CSNK1D assay as described in the following paragraphs. In essence, the enzyme activity is measured by quantification of the adenosine-di-phosphate (ADP), which is generated as a co-product of the enzyme reaction, via the “ADP-Glo™ Kinase Assay” kit from the company Promega. This detection system works as follows: In a first step the ATP not consumed in the kinase reaction is quantitatively converted to cAMP employing an adenylate cyclase (“ADP-Glo-reagent”), then the adenylate cyclase is stopped and the ADP generated in the kinase reaction converted to ATP which generates in a luciferase-based reaction a glow-luminescence signal (“Kinase Detection Reagent”).
# as §1, with “CSNK1D,” for “CSNK1A1,”, “PV3665)” for “PV4174)”, “Btn-Ahx-SGSEGDSESGEEEG” for “biotin-Ahx-KRRRAL-pS-VASLPGL”
# For the assay 50 nl of a 100 fold concentrated solution of the test compound in DMSO was pipetted into a white 1536-well microtiter plate (Greiner Bio-One, Frickenhausen, Germany), 2 μL of a solution of CSNK1D in aqueous assay buffer [50 mM HEPES pH 7.5, 10% (v/v) glycerol, 10 mM MgCl2, 50 mM NaCl, 1 mM dithiothreitol, 0.01% (w/v) bovine serum albumin, 0.01% (v/v) Triton X-100] were added and the mixture was incubated for 15 min at 22° C. to allow pre-binding of the test compounds to the enzyme before the start of the kinase reaction. Then the kinase reaction was started by the addition of 3 μL of a solution of ATP (1.67 μM=>final conc. in the 5 μL assay volume is 1 μM) and peptide substrate (50 μM=>final conc. in the 5 μL assay volume is 30 μM) in assay buffer and the resulting mixture was incubated for a reaction time of 30 min at 22° C. The concentration of CSNK1D was adjusted depending of the activity of the enzyme lot and was chosen appropriate to have the assay in the linear range, a typical concentration is about 0.5 ng/μL. The reaction was stopped by the addition of 2.5 μL of “ADP-Glo-reagent” (1:1.5 fold diluted with water) and the resulting mixture was incubated at 22° C. for 1 h to convert the ATP not consumed in the kinase reaction completely […]. Subsequently 2.5 μL of the “kinase detection reagent” (1.2 fold more concentrated than recommended by the producer) were added, the resulting mixture was incubated at 22° C. for 1 h and then the luminescence measured with a suitable measurement instrument (e.g. Viewlux™ from Perkin-Elmer). The amount of emitted light was taken as a measure for the amount of ADP generated and thereby for the activity of the CSNK1D.
# as §2
# human CSNK1A1, sequence (P48729 whole entry): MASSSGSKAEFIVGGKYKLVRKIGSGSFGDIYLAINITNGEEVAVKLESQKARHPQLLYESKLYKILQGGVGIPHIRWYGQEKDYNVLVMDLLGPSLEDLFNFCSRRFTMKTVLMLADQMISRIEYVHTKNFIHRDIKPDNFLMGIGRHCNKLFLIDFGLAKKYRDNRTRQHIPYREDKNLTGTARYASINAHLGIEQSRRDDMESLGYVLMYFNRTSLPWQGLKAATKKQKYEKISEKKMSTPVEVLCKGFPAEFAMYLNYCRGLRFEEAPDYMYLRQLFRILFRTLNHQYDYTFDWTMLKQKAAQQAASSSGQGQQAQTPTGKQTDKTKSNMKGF
smiles,measurement,setting,value
"Cn1cc(CC(F)(F)F)c2[nH]c(-c3ccnc(NC(=O)C(CC(F)F)c4ccc(F)cc4)c3)c(Nc3ccccc3)c2c1=O (racemic) [Example 35, N-{4-[3-anilino-5-methyl-4-oxo-7-(2,2,2-trifluoroethyl)-4,5-dihydro-1H-pyrrolo[3,2-c]pyridin-2-yl]pyridin-2-yl}-4,4-difluoro-2-(4-fluorophenyl)butanamide]",IC50,[1],8 nM
same,IC50,[2],5.9 nM
